Experimental data reported in US20240092784A1, “CONDENSED HETEROCYCLIC COMPOUND” (NISSAN CHEMICAL CORPORATION, priority 2020, published 2024).
Counter-ions that a name gives are not always drawn.

Biological target: human SPR (Homo sapiens (Human), UniProt P35270)
Test: Evaluation Example 2: Measurement of human SPR inhibitory activity (seven concentrations, sepiapterin absorbance at 420 nm)
Assay type: biochemical
Conditions: Evaluation Example 2, seven concentrations 0.14 nM to 100 nM, 240 minutes at room temperature, hydrochloride, read-out: IC50
Protocol: Human SPR was prepared as described below. The full-length human SPR (1-261) cDNA was purchased from Eurofins Genomics as an artificially synthesized plasmid containing a DNA sequence optimized for the E. coli expression system so that the sequence of the expressed protein after transcription and translation matches the sequence described in UniprotKB (P35270).
Linearized insert and vector were prepared by PCR using primers designed for amplification of human SPR cDNA and primers designed to contain the thrombin recognition sequence of pET28a (Novagen) and a polyhistidine tag. Cloning was performed using In-Fusion (registered trademark) HD Cloning Kit (TaKaRa) to thereby construct a human SPR expression plasmid. The resultant human SPR expression plasmid was transformed into BL21 (DE3) competent cells (INVITROGEN).
The cells were inoculated into LB medium (1% triptone, 0.5% yeast extract, 1% sodium chloride) containing […] of kanamycin, and then precultured at 37° C. overnight. The precultured cells were inoculated into TB medium (1.2% triptone, 2.4% yeast extract, 9.4% dipotassium hydrogen phosphate, 2.2% potassium dihydrogen phosphate, 0.8% glycerin) containing […] of kanamycin, and the cultured at 37° C., to thereby induce SPR expression with 0.5 mM IPTG for four hours. After the induction, the cells were collected by centrifugation at 6,000 G for 30 minutes and washed with PBS, and the washing was discarded. The washed cells were suspended in buffer solution A (20 mM MES, pH 6.5, 100 mM sodium chloride, 1 mM DTT, 5 mM imidazole). Subsequently, the cell suspension was subjected to ultrasonic treatment to thereby homogenize the cells. The cell homogenate was clarified by centrifugation at 30,000 G for 60 minutes and then filtered with a […]. The filtrate was allowed to pass through HisTrapFF 5 mL column (GE Healthcare). The resin was washed with buffer A, and then gradient elution was performed with buffer B (20 mM MES, pH 6.5, 100 mM sodium chloride, 1 mM DTT, 500 mM imidazole). Thrombin was added to a fraction containing the SPR protein, and the mixture was dialyzed in buffer A overnight, to thereby cleave the tag. After removal of the thrombin by with Benzamidine Sepharose 4 FF (GE Healthcare), the resultant product was allowed to pass through the HisTrapFF 5 mL column, to thereby remove the tag, followed by concentration with Amicon Ultra 10,000 NMWL (Merck Millipore). The concentrate was purified by gel filtration using HiLoad 16/60 Superdex 75 pg (GE Healthcare) equilibrated with buffer C (20 mM MES, pH 6.5, 100 mM sodium chloride, 1 mM DTT). The fraction containing SPR protein was concentrated and then cryopreserved at −80° C.
Human SPR inhibitory activity was measured by using a 384-well low adsorption clear plate (Greiner) with buffer D containing 100 mM Tris-HCl (pH 7.5) (Thermo Fisher Scientific) and 0.01% bovine serum albumin (Sigma). A compound was diluted with DMSO to achieve seven different final concentrations; i.e., 0.14 nM, 0.41 nM, 1.23 nM, 3.7 nM, 11.1 nM, 33 nM, and 100 nM. A 1.5 μL aliquot of the compound solution prepared with DMSO was diluted with 250 μL of buffer D, and the thus-diluted solution was dispensed into the 384-well plate at 20 μL/well. Thereafter, human SPR was diluted with buffer D to 150 ng/mL and then dispensed into the 384-well plate at 20 μL/well. Subsequently, 40 μL of ultrapure water containing 120 μM sepiapterin (produced by the method described in L-Sepiapterin, Heterocycles, 2008, 76, 1329-1335 and WO 2013/168693) and 160 μM NADPH (Nacalai) was added to each well, and then reaction was initiated. The reaction mixture was incubated at room temperature for 240 minutes. Thereafter, in order to determine the amount of sepiapterin, the absorbance at 420 nm was measured by applying the 384-well plate to EnSpire multimode plate reader (Perkin Elmer). The percent inhibition (%) of human SPR by the test compound was calculated by the following formula.

Sequence of human SPR (P35270 whole entry): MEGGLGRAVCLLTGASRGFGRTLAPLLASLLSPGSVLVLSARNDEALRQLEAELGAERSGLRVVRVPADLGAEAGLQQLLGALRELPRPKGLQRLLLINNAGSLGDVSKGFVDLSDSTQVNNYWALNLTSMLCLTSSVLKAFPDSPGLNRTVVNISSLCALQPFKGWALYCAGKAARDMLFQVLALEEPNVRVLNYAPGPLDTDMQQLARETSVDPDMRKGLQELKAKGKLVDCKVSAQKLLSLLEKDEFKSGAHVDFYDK

**Q.** How did the IC50 turn out when `CC(C)(C)Cn1c(=O)c(C(=O)NC2CC2)c(O)n2nc(N)cc12` [Synthesis Example 4, 2-Amino-N-cyclopropyl-7-hydroxy-4-neopentyl-5-oxo-4,5-dihydropyrazolo[1,5-a]pyrimidine-6-carboxamide hydrochloride] was run?
**A.** 900 pM

Same assay, conditions: Evaluation Example 2, seven concentrations 0.14 nM to 100 nM, 240 minutes at room temperature, read-out: IC50

**Q.** How did the IC50 turn out when `CC(C)Cn1c(=O)c(C(=O)NC2CC2)c(O)n2ncc(/C=C/C(=O)N3CCOCC3CC(F)(F)F)c12` (single isomer, unassigned; isomer b) [compound 551, (E)-N-Cyclopropyl-7-hydroxy-4-isobutyl-5-oxo-3-(3-oxo-3-(3-(2,2,2-trifluoroethyl)morpholino)prop-1-en-1-yl)-4,5-dihydropyrazolo[1,5-a]pyrimidine-6-carboxamide (Isomer B)] was run?
**A.** 840 pM

**Q.** For `CC(C)Cn1c(=O)c(C(=O)NC2CC2)c(O)n2ncc(C(=O)NCc3ccccn3)c12` [Synthesis Example 215, N6-Cyclopropyl-7-hydroxy-4-isobutyl-5-oxo-N3-(pyridin-2-ylmethyl)-4,5-dihydropyrazolo[1,5-a]pyrimidine-3,6-dicarboxamide], which IC50 is on record?
**A.** 1040 pM

**Q.** With `CC(C)Cn1c(=O)c(C(=O)NC2CC2)c(O)n2ncc(C(=O)NCc3cccnc3)c12` [Synthesis Example 216, N6-Cyclopropyl-7-hydroxy-4-isobutyl-5-oxo-N3-(pyridin-3-ylmethyl)-4,5-dihydropyrazolo[1,5-a]pyrimidine-3,6-dicarboxamide] as the compound, how does the IC50 read?
**A.** 780 pM

**Q.** For `CC(C)Cn1c(=O)c(C(=O)NC2CC2)c(O)n2ncc(C(=O)NCc3ccncc3)c12` [Synthesis Example 217, N6-Cyclopropyl-7-hydroxy-4-isobutyl-5-oxo-N3-(pyridin-4-ylmethyl)-4,5-dihydropyrazolo[1,5-a]pyrimidine-3,6-dicarboxamide], which IC50 is on record?
**A.** 690 pM

**Q.** Which IC50 does the source give for `CC(C)Cn1c(=O)c(C(=O)NC2CC2)c(O)n2ncc(C(=O)N[C@@H](C)c3ccccn3)c12` [Synthesis Example 218, (S)-N6-Cyclopropyl-7-hydroxy-4-isobutyl-5-oxo-N3-(1-(pyridin-2-yl)ethyl)-4,5-dihydropyrazolo[1,5-a]pyrimidine-3,6-dicarboxamide] here?
**A.** 890 pM

**Q.** For `CC(C)Cn1c(=O)c(C(=O)NC2CC2)c(O)n2ncc(C(=O)N[C@H](C)c3ccccn3)c12` [Synthesis Example 219, (R)-N6-Cyclopropyl-7-hydroxy-4-isobutyl-5-oxo-N3-(1-(pyridin-2-yl)ethyl)-4,5-dihydropyrazolo[1,5-a]pyrimidine-3,6-dicarboxamide], which IC50 is on record?
**A.** 980 pM

**Q.** With `CC(C)Cn1c(=O)c(C(=O)NC2CC2)c(O)n2ncc(C(=O)NCc3cnccn3)c12` [Synthesis Example 220, N6-Cyclopropyl-7-hydroxy-4-isobutyl-5-oxo-N3-(pyrazin-2-ylmethyl)-4,5-dihydropyrazolo[1,5-a]pyrimidine-3,6-dicarboxamide] as the compound, how does the IC50 read?
**A.** 790 pM

**Q.** For `CC(C)Cn1c(=O)c(C(=O)NC2CC2)c(O)n2ncc(C(=O)NCC3CCOCC3)c12` [Synthesis Example 221, N6-Cyclopropyl-7-hydroxy-4-isobutyl-5-oxo-N3-((tetrahydro-2H-pyran-4-yl)methyl)-4,5-dihydropyrazolo[1,5-a]pyrimidine-3,6-dicarboxamide], which IC50 is on record?
**A.** 640 pM

**Q.** With `CC(C)Cn1c(=O)c(C(=O)NC2CC2)c(O)n2ncc(C(=O)NCC3CC(F)(F)C3)c12` [Synthesis Example 222, N6-Cyclopropyl-N3-((3,3-difluorocyclobutyl)methyl)-7-hydroxy-4-isobutyl-5-oxo-4,5-dihydropyrazolo[1,5-a]pyrimidine-3,6-dicarboxamide] as the compound, how does the IC50 read?
**A.** 790 pM

**Q.** How did the IC50 turn out when `Cc1nn(C)c(C)c1CNC(=O)c1cnn2c(O)c(C(=O)NC3CC3)c(=O)n(CC(C)C)c12` [Synthesis Example 223, N6-Cyclopropyl-7-hydroxy-4-isobutyl-5-oxo-N3-((1,3,5-trimethyl-1H-pyrazol-4-yl)methyl)-4,5-dihydropyrazolo[1,5-a]pyrimidine-3,6-dicarboxamide] was run?
**A.** 1120 pM

**Q.** With `Cc1cnc(CNC(=O)c2cnn3c(O)c(C(=O)NC4CC4)c(=O)n(CC(C)C)c23)cn1` [Synthesis Example 224, N6-Cyclopropyl-7-hydroxy-4-isobutyl-N3-((5-methylpyrazin-2-yl)methyl)-5-oxo-4,5-dihydropyrazolo[1,5-a]pyrimidine-3,6-dicarboxamide] as the compound, how does the IC50 read?
**A.** 780 pM

**Q.** How did the IC50 turn out when `CC(C)Cn1c(=O)c(C(=O)NC2CC2)c(O)n2ncc(C(=O)Nc3ccccn3)c12` [Synthesis Example 225, N6-Cyclopropyl-7-hydroxy-4-isobutyl-5-oxo-N3-(pyridin-2-yl)-4,5-dihydropyrazolo[1,5-a]pyrimidine-3,6-dicarboxamide] was run?
**A.** 1840 pM

**Q.** How did the IC50 turn out when `CC(C)Cn1c(=O)c(C(=O)NC2CC2)c(O)n2ncc(C(=O)NCc3ccc(C(F)(F)F)nc3)c12` [Synthesis Example 226, N6-Cyclopropyl-7-hydroxy-4-isobutyl-5-oxo-N3-((6-(trifluoromethyl)pyridin-3-yl)methyl)-4,5-dihydropyrazolo[1,5-a]pyrimidine-3,6-dicarboxamide] was run?
**A.** 1070 pM

**Q.** Which IC50 does the source give for `CC(C)Cn1c(=O)c(C(=O)NC2CC2)c(O)n2ncc(C(=O)N3CCOCC3)c12` [Synthesis Example 227, N-Cyclopropyl-7-hydroxy-4-isobutyl-3-(morpholine-4-carbonyl)-5-oxo-4,5-dihydropyrazolo[1,5-a]pyrimidine-6-carboxamide] here?
**A.** 650 pM

**Q.** For `Cc1ccc(CNC(=O)c2cnn3c(O)c(C(=O)NC4CC4)c(=O)n(CC(C)C)c23)nc1` [Synthesis Example 228, N6-Cyclopropyl-7-hydroxy-4-isobutyl-N3-((5-methylpyridin-2-yl)methyl)-5-oxo-4,5-dihydropyrazolo[1,5-a]pyrimidine-3,6-dicarboxamide], which IC50 is on record?
**A.** 1020 pM

**Q.** How did the IC50 turn out when `Cc1cc(CNC(=O)c2cnn3c(O)c(C(=O)NC4CC4)c(=O)n(CC(C)C)c23)n(C)n1` [Synthesis Example 229, N6-Cyclopropyl-N3-((1,3-dimethyl-1H-pyrazol-5-yl)methyl)-7-hydroxy-4-isobutyl-5-oxo-4,5-dihydropyrazolo[1,5-a]pyrimidine-3,6-dicarboxamide] was run?
**A.** 850 pM

**Q.** For `CC(C)Cn1c(=O)c(C(=O)NC2CC2)c(O)n2ncc(C(=O)N(C)Cc3cccnc3)c12` [Synthesis Example 230, N6-Cyclopropyl-7-hydroxy-4-isobutyl-N3-methyl-5-oxo-N3-(pyridin-3-ylmethyl) 4,5-dihydropyrazolo[1,5-a]pyrimidine-3,6-dicarboxamide], which IC50 is on record?
**A.** 930 pM

**Q.** `CC(C)Cn1c(=O)c(C(=O)NC2CC2)c(O)n2ncc(C(=O)NCc3ncccn3)c12` [Synthesis Example 231, N6-Cyclopropyl-7-hydroxy-4-isobutyl-5-oxo-N3-(pyrimidin-2-ylmethyl)-4,5-dihydropyrazolo[1,5-a]pyrimidine-3,6-dicarboxamide] was tested. Which IC50 did it give?
**A.** 650 pM

**Q.** `CC(C)Cn1c(=O)c(C(=O)NC2CC2)c(O)n2ncc(C(=O)NCc3ccc(C#N)cc3)c12` [Synthesis Example 232, N3-(4-Cyanobenzyl)-N6-cyclopropyl-7-hydroxy-4-isobutyl-5-oxo-4,5-dihydropyrazolo[1,5-a]pyrimidine-3,6-dicarboxamide] was tested. Which IC50 did it give?
**A.** 1250 pM

**Q.** `CC(C)Cn1c(=O)c(C(=O)NC2CC2)c(O)n2ncc(C(=O)NCc3ccccc3F)c12` [Synthesis Example 233, N6-Cyclopropyl-N3-(2-fluorobenzyl)-7-hydroxy-4-isobutyl-5-oxo-4,5-dihydropyrazolo[1,5-a]pyrimidine-3,6-dicarboxamide] was tested. Which IC50 did it give?
**A.** 1030 pM
